This is an account of results in patent US9789110B2, “Diacylglycerol acyltransferase 2 inhibitors” (PFIZER INC., priority 2014, dated 2017).

Each structure is given as a SMILES string. Where two headings read alike, the source gives them in different places.

Assay [1] has as its target DGAT2 in primary human hepatocytes (Homo sapiens (Human), UniProt Q96PD7). Kind of assay: IC50 for DGAT2 inhibitors in human hepatocytes, [14C]-glycerol incorporation into lipids. It counts as cell-based. The procedure: For evaluation of the effects of DGAT2 inhibitors in a cell-based setting, cryopreserved human hepatocytes (Lot QOC and NON, Celsis, Chicago, Ill.) were thawed and plated onto type I collagen-coated plates according to the manufacturer's instructions. After 24 hours overnight recovery period, the cells were overlayed with media containing 250 μg/ml Matrigel (BD Biosciences, San Jose, Calif.). The following day, media was aspirated and replaced with serum-free Williams Media E (Life Technologies, Grand Island, N.Y.) containing 400 μM sodium dodecanoate (Sigma-Aldrich, St. Louis, Mo.). Forty minutes later, DGAT2 inhibitors (prepared as 100× stocks in 25% DMSO, 75% Williams' Media E) were added to the desired final concentration. […] After a 20 minute preincubation, 0.2 μCi [1,3-^14C]-glycerol glycerol (American Radio Chemicals, St. Louis, Mo.) was added to each well and mixed by gentle pipetting prior to a 3 hour incubation. At this point, media was aspirated and the cells were lysed in isopropyl alcohol: tetrahydrofuran (9:1) prior to centrifugation at 3000 rpm for 5 minutes. Radiolabeled lipids were resolved using a 2-solvent system by thin layer chromatography using standard technique (solvent 1 contained ethyl acetate:isopropyl alcohol:chloroform:methanol:0.25% potassium chloride in water (100:100:100:40.2:36.1, v/v/v/v) and solvent 2 contained hexane: diethyl ether: acetic acid (70:27:3, v/v/v)). After separation, radiolabeled lipids were visualized using a Molecular Dynamics' PhosphorImager system. The half maximal inhibitory concentrations (IC50 values) were determined using GraphPad Prism (GraphPad Software, Inc., La Jolla, Calif.).
Table 4 below provides IC50 values for the Examples in accordance with the above-described assay. Results were reported as average IC50 values, low and high IC50 range (95% confidence interval).

The target of assay [2] is hDGAT2 (Homo sapiens (Human), UniProt Q96PD7). The assay can be described thus: In vitro DGAT2 assay, hDGAT2 membrane fraction, [14C]decanoyl-CoA scintillation readout. It counts as biochemical. To be noted: geometric mean; FLAG-hDGAT2 membrane fraction; 2 h preincubation; read-out: IC50 for inhibition of DGAT2. On the procedure: Recombinant baculovirus for the FLAG-tagged hDGAT2 was generated in SF9 insect cells using Bac-to-Bac baculovirus expression system (Invitrogen) according to the manufacturer's protocol. For the expression of hDGAT2, SF9 cells (20 L) grown in Sf90011 media were infected with hDGAT2 baculovirus at a multiplicity of infection of 1 in a Wave Bioreactor System 20/50P wave bag (GE Healthcare). After 40 hours of infection, the cells were then harvested by centrifugation at 5,000×g. The cell pellets were washed by resuspending in phosphate buffered saline (PBS) and collected by centrifugation at 5,000×g. The cell paste was flash frozen in liquid N2 and stored at −80° C. until needed. All operations below were at 4° C. unless otherwise noted. The cells were resuspended in lysis buffer (50 mM Tris-HCl, pH 8.0, 250 mM sucrose) including 1 mM ethylenediaminetetraacetic acid (EDTA) and the complete protease inhibitor cocktail (Roche Diagnostics) at a ratio of 3 ml buffer per 1 g cell paste. The cells were lysed by dounce homogenizer. The cell debris was removed by centrifugation at 1,000×g for 20 min, and the supernatant was centrifuged at 100,000×g for 1 hour. The resulting pellet was rinsed three times by filling ultracentrifuge tubes to the top with ice cold PBS before decanting. The washed pellet was resuspended with gentle stirring for 1 hour in lysis buffer containing 8 mM 3-[(3-cholamidopropyl)dimethylammonio]-1-propanesulfonate (CHAPS) at a ratio of 1 mL buffer per 1 g of original cell paste and centrifuged again at 100,000×g for 1 hour. The resulting supernatant was aliquotted, flash frozen in liquid N2, and stored at −80° C. until use.
For determination of IC50 values, the reactions were carried out in 384-well white Polyplates (Perkin Elmer) in a total volume of 20 μL. To […] compounds dissolved in 100% DMSO and spotted at the bottom of each well, 5 μL of 0.04% bovine serum albumin (BSA) (fatty acid free, Sigma Aldrich) was added and the mixture was incubated at room temperature for 20 minutes. To this mixture, 10 μL of hDGAT2 membrane fraction (0.01 mg/mL) diluted in 100 mM Hepes-NaOH, pH 7.4, 20 mM MgCl2 containing 200 nM methyl arachidonyl fluorophosphonate (Cayman Chemical; dried from ethyl acetate stock solution under argon gas and dissolved in DMSO as 5 mM stock) was added. After this mixture was preincubated at room temperature for 2 hours, DGAT2 reactions were initiated by the addition of 4 μL of substrates containing 30 μM [1-^14C]decanoyl-CoA (custom-synthesized by Perkin Elmer, 50 mCi/mmol) and 125 μM 1,2-didecanoyl-sn-glycerol (Avanti Polar Lipids) dissolved in 12.5% acetone. The reaction mixtures were incubated at room temperature for 40 min and the reactions were stopped by addition of 5 μL of 1% H3PO4. After the addition of 45 μL MicroScint-E (Perkin-Elmer), plates were sealed with Top Seal-A covers (Perkin-Elmer) and phase partitioning of substrates and products was achieved using a HT-91100 microplate orbital shaker (Big Bear Automation, Santa Clara, Calif.). Plates were centrifuged at 2,000×g for 1 min in an Allegra 6R Centrifuge (Beckman Coulter) and then were sealed again with fresh covers before reading in a 1450 Microbeta Wallac Trilux Scintillation Counter (Perkin Elmer). DGAT2 activity was measured by quantifying the generated product [^14C]tridecanoylglycerol in the upper organic phase.
Inhibitors were tested at eleven different concentrations to generate IC50 values for each compound.

Setting [3] is: average, cryopreserved human hepatocytes, selective DGAT1 inhibitor 3 μM in all wells, 3 hour incubation, read-out: IC50 in primary human hepatocytes.

Chain of hDGAT2 (Q96PD7 whole entry): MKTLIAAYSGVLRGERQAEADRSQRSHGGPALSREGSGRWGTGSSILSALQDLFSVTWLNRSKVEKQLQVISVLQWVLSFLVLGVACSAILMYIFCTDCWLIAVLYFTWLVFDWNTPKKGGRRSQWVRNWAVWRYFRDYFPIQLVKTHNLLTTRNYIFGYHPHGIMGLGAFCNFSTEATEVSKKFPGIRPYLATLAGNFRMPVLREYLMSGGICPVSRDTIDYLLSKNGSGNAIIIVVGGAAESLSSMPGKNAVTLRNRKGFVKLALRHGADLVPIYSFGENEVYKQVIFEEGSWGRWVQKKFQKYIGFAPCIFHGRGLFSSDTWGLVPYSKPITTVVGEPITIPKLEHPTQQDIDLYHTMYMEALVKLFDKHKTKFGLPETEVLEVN
Chain of DGAT2 in primary human hepatocytes (Q96PD7 whole entry): as above

On to `CCOc1ccccc1O[C@@H]1CCCN(c2ncc(C(=O)NCc3cccc(CC(=O)O)c3)cn2)C1` [Example 18.2, (R)-2-(3-((2-(3-(2-ethoxyphenoxy)piperidin-1-yl)pyrimidine-5-carboxamido)methyl)phenyl)acetic acid], for which the IC50 (as a rule, the concentration that gives 50% inhibition) in assay [1] (setting [3]) worked out at 45.7 nM; in assay [2], 156 nM.

As to `CCOc1ccccc1O[C@@H]1CCCN(c2ncc(C(=O)NCc3ccccc3CC(=O)O)cn2)C1` [Example 18.3, (R)-2-(2-((2-(3-(2-ethoxyphenoxy)piperidin-1-yl)pyrimidine-5-carboxamido)methyl)phenyl)acetic acid], the IC50 in assay [1] (setting [3]) amounted to 499 nM; in assay [2], 182 nM.

Regarding `CCOc1ccccc1O[C@@H]1CCCN(c2ncc(C(=O)NCc3cc(O)no3)cn2)C1` [Example 19.2, (R)-2-(3-(2-ethoxyphenoxy)piperidin-1-yl)-N-((3-hydroxyisoxazol-5-yl)methyl)pyrimidine-5-carboxamide], the IC50 in assay [1] was 341 nM; in assay [2], 262 nM.

As to `CCOc1ccccc1O[C@@H]1CCCN(c2ncc(C(=O)NCc3nc(=O)[nH][nH]3)cn2)C1` [Example 20.5, (R)-2-(3-(2-ethoxyphenoxy)piperidin-1-yl)-N-((5-oxo-2,5-dihydro-1H-1,2,4-triazol-3-yl)methyl)pyrimidine-5-carboxamide], the IC50 worked out at 81.6 nM in assay [1] (setting [3]) and 68 nM in assay [2].

Take `CCOc1ccccc1O[C@@H]1CCCN(c2ncc(C(=O)NCCc3cn[nH]c3O)cn2)C1` [Example 20.8, (R)-2-(3-(2-ethoxyphenoxy)piperidin-1-yl)-N-(2-(5-hydroxy-1H-pyrazol-4-yl)ethyl)pyrimidine-5-carboxamide]: the IC50 in assay [1] (setting [3]) amounted to 37.8 nM; in assay [2] it was 29.3 nM.

Turning to `CCOc1ccccc1O[C@@H]1CCCN(c2ncc(C(=O)N3CC[C@H]3C(N)=O)cn2)C1` [Example 20.10, (S)-1-(2-((R)-3-(2-ethoxyphenoxy)piperidin-1-yl)pyrimidine-5-carbonyl)azetidine-2-carboxamide], the IC50 in assay [1] (setting [3]) came out at 59.8 nM; in assay [2] it was 170 nM.
